The subject of one assay is rat lenses. Description: Rat lens organ culture exposed to H2O2 with or without L-carnitine. In kind it is cell-based, Sprague-Dawley rats. Particulars: after 24 h incubation with H2O2 ± L-carnitine. The method, then: Four-month-old Sprague-Dawley rats were anesthesized with 5 mg/kg xylazine and 65 mg/kg ketamine, and decapitated. Immediately after, eyes were enucleated, extracted and placed in 2 ml of modified TC-199 medium. Lens integrity was assessed by measuring protein leached into the medium after 30-60 min of culture; damaged lenses were discarded. One lens of each pair was placed in culture medium with no H2O2 and used as a control. […] The controlateral lens of each pair was placed in medium and, after equilibration under 5% CO2 at 37° C., was exposed to 500 μM H2O2 in the absence or presence of 300 μM L-carnitine. After 24 h of incubation, morphological characteristics and changes were recorded, and the lenses were photographed. The incubated lenses were rinsed with saline solution, blotted on filter paper, weighed, and then immediately processed for biochemical analysis. To determine lactate dehydrogenase (LDH) leakage, lenses were incubated individually in each different medium, and the medium was harvested daily and saved for LDH analysis.
Decapsulated lenses were homogenized with disposable pestles and then sonicated in extract buffer (20 mM HEPES, 0.2 mM EDTA, 0.5 mM dithiothreitol, 450 mM NaCl, 25% glycerol, […] leupeptin, 0.5 μg/ml protinin, 0.5 mM phenylmethanesulfonyl fluoride) on ice. Aliquots of the homogenate from each of the incubated lenses were removed for GSH and L-carnitine analysis. The remainder was centrifuged for 25 min at 20,000×g to separate the supernatant from the pellet. The pellet was washed with 1.0 ml buffer and dried under nitrogen. This fraction was designated “water-insoluble fraction”. The supernatant fraction was dialyzed twice against 3 ml of 0.025 mol/l phosphate buffer, pH 7.4 for 48 h and lyophilized. This fraction was designated “water-soluble” fraction. The water-soluble and water-insoluble fractions were delipidated with 3.0 ml chloroform:methanol (2:1) for 16 h under shaking followed by centrifugation at 2,000 g for 5 min.
The water-insoluble proteins were suspended in 0.2 M N-ethylmorpholine acetate (pH 8.1). An aliquot (10%) was used to quantitate the amount of total protein. Samples were digested by the sequential addition of proteolytic enzymes (collagenase, pronase, aminopeptidase and carboxypeptidase A, carboxypeptidase B and carboxypeptidase y), directly to the reaction mixture at 37° C. in the presence of 0.02% sodium azide. After enzymatic digestion, the free N-(γ-glutamyl)lysine isopeptide cross-link was resolved by HPLC and quantitated by amino acid analysis (Hohl, D., et al (1991), J Biol Chem. 266, 6626-6636). In a related set of experiments, the isopeptide content of lenses was determined without prior extraction. […]

In assay [1] the test system is α-crystallin. Description: Chaperone-like activity of α-crystallin from treated lenses (heat-induced βL-crystallin aggregation, light scattering at 360 nm). It counts as biochemical, rat. Particulars: 100 or 200 μg α-crystallin + 200 μg βL-crystallin; 55° C. or 58° C. The method, then: The following experiments were performed essentially as described elsewhere (Horwitz, J. (1992) Proc Natl Acad Sci USA. 89, 10449-10453). The chaperone-like activity of α-crystallin from control and H2O2±L-carnitine treated lenses was determined by heat denaturation studies. The extent to which the unmodified or modified α-crystallin preparation protected βL-crystallin (used as the target protein) from heat-induced denaturation and aggregation was assessed as follows: 100 μg or 200 μg of α-crystallin were added to 200 μg of βL-crystallin in a 1.5-ml cuvette and made up to a final volume of 1 ml with 50 mM phosphate buffer, pH 7.0. The cuvette was placed in a temperature-regulated cell holder attached to a UV spectrophotometer. Light scattering due to protein denaturation and aggregation was monitored at. 360 nm absorbance for 3,000 s at 55° C. or for 1,800 s at 58° C.
The chaperone properties of the purified water-soluble α-crystallin were determined by crystallin (target protein) aggregation assay. Characteristically, βL-crystallin aggregates at elevated temperatures. The addition of α-crystallin either prevents or decreases the heat-induced aggregation of βL-crystallin, which is measured by light scattering at 360 nm. Since the ratio of α to β determines the degree of protection against heat-induced aggregation, we used 100 μg or 200 μg of α-crystallin and 200 μg of βL-crystallin. […]

Assay [2] concerns α-crystallin. Description: GFAP gel forming assay (falling ball viscosimetry) with α-crystallin from treated lenses. It counts as biochemical, rat. Particulars: α-crystallin from H2O2 ± L-carnitine-treated lenses; 37° C., 1 h. From the text:
The sedimentation assay devised by Nicholl and Quinlan (Nicholl, I. D., and Quinlan, R. A. (1994), EMBO J 13, 945-953) was used to assess α-crystallin-induced inhibition of intermediate filament assembly. Purified porcine glial fibrillary acidic: protein (GFAP) was used for these studies; it was purified from porcine spinal cord by axonal flotation as described previously (Pemg, M. D., et al (1999), J Cell Sci. 112, 2099-2112, MacLean-Fletcher, S., and Pollard, T. D. (1980), Biochem Biophys Res Commun 96, 18-27). The gel formation assay was based on a method used to monitor actin binding protein activity by falling ball viscometry (Pemg, M. D., et al (1999), J Cell Sci. 112, 2099-2112). α-Crystallins were mixed with GFAP in 8 M urea, 20 mM Tris-HCI, pH 8.0, 5 mM EDTA, 25 mM 2-mercaptoethanol and then stepwise dialyzed in 10 mM Tris-HCI, pH 8.0, 25 mM 2-mercaptoethanol. Assembly of the GFAP intermediate filaments, in the presence or absence of α-crystallin, was induced by the addition of a 20-fold concentrated buffer to give a final concentration of 100 mM imidazole-HCI, pH 6.8, 0.5 mM DTT. A 100-μl aliquot of sample was loaded into a glass tube and used for the viscosity assay. The tube was then immersed in a 37° C. water bath for 1 h before the gel formation assay. A ball was then placed into the tube, and the ability of the solution to support the ball was monitored. […]

Assay [3] concerns α-crystallin. As to the kind of experiment: Tryptophan fluorescence of α-crystallin fractions from treated lenses. More on the design: species or system rat. Particulars: excitation 295 nm, emission 330 nm. From the text:
The loss of-protein tryptophan fluorescence, an indicator of tryptophan oxidation, seems to be a marker of crystallin integrity. We therefore measured-tryptophan fluorescence in lens crystallin (Perkin-Elmer 650-40 spectrophotometer) according to a previously described method (Jones, R. H. V., and Hothersall, J. S. (1993), Exp Eye Res 57, 783-790). The excitation wavelength was set to 295 nm, and the fluorescence emission was detected at 330 nm.

For the next assay, the system named is lens crystallins. Particulars: Swamy-Mruthinti and Carter 1999; cited from earlier work.

“Also recorded” adds a separate entry of the source.

Consider `OO` [H2O2], for which, in the assay on rat lenses, the “Lens clarity / opacification” value is “became opaque”; the “Lens morphology by optical and electron microscopy” value was “Ballooning, liquefaction and various degrees of fiber swelling”. Besides, the “Capacity of α-crystallin to prevent heat-induced aggregation of βL-crystallin” value in the assay with α-crystallin [1] is “significant decrease”. Further, the “Inhibition of GFAP gel formation by α-crystallin” value with α-crystallin [2] was “did not affect gel formation”. Besides, the “Loss of tryptophan fluorescence in α-crystallin” value in the assay with α-crystallin [3] turned out to be 2.7 fold.
On to `C[N+](C)(C)C[C@H](O)CC(=O)[O-]` [L-carnitine], for which, in the assay on rat lenses, the “Lens clarity / opacification” value is “remained clear; also recorded: remained transparent”; the “Lens morphology by optical and electron microscopy” value is “cell shape was unaltered and that fiber cells were intact”. Moreover, in the assay on α-crystallin [1], the “Capacity of α-crystallin to prevent heat-induced aggregation of βL-crystallin” value is reported as “prevented this negative effect”. The “Inhibition of GFAP gel formation by α-crystallin” value with α-crystallin [2] is reported as “blocked GFAP gel formation to the same extent as α-crystallin from control lenses”. For the same molecule, the “Loss of tryptophan fluorescence in α-crystallin” value in the assay on α-crystallin [3] is listed as “restored the basal value”. Moreover, the “Effect on in vitro glycation of lens crystallins” value (from here on “Effect on in vitro glycation”) in the assay with lens crystallins is recorded as “ineffective”.
Turning to `CC(=O)O[C@H](CC(=O)[O-])C[N+](C)(C)C` [acetyl L-carnitine], in the assay with lens crystallins, the “Effect on in vitro glycation” value was “decreased crystallin glycation”.
For the molecule `CC(=O)Oc1ccccc1C(=O)O` [acetyl salicylic acid], the “Effect on in vitro glycation” value in the assay with lens crystallins is “decreased crystallin glycation”.

These data come from US7833977B2, “Use of L-Carnitine as stabilizing agent of proteins” (Sigma-Tau Industrie Farmaceutiche Riunite S.p.A., priority 2000, dated 2010).
